Here are results for 11 compounds from US6696484B2, “Method and compositions for regulation of 5-alpha reductase activity” (University of Chicago Office of Technology and Intellectual …, priority 1997, dated 2004).

The subject of series [1] is 5α-reductase. Description: Cell-free 5α-reductase assay, isozyme not given. Format: biochemical, human. The note with it: isozyme not stated.
Series [2] deals with T1, type 1 human 5α-reductase (Homo sapiens, UniProt P18405).
T1 sequence (P18405 1-259): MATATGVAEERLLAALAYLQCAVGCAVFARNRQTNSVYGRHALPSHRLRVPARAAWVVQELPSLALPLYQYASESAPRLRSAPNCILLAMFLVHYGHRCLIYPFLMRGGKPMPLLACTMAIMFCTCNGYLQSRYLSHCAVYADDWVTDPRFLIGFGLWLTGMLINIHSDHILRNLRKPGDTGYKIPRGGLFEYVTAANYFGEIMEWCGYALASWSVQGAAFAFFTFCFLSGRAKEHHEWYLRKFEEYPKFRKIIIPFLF
Description: Cell-free enzymatic assay of 5α-reductase (testosterone to DHT), type 1. The conditions noted are these: for inhibition at 100 µM: read-out: percent inhibition of 5α-reductase activity, cell-free assay, Type 1, 100 μM compound.

The target of series [3] is T2, type 2 human 5α-reductase (Homo sapiens, UniProt P31213).
T2 sequence (P31213 1-254): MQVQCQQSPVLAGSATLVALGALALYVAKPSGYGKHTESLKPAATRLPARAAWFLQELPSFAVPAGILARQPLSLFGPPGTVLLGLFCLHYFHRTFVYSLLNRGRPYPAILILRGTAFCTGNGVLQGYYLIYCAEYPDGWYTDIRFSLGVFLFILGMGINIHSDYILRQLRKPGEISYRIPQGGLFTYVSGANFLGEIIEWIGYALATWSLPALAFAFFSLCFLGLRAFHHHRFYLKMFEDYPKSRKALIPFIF
Put plainly: Cell-free enzymatic assay of 5α-reductase (testosterone to DHT), type 2. Format: biochemical. Also on record: expressed in transfected cells; host or cells: rat 1A cells infected with pMV7 retrovirus and selected with G418; microsomes for the cell-free assay. The note with it: for inhibition at 100 µM: read-out: percent inhibition of 5α-reductase activity, cell-free assay, Type 2, 100 μM compound.

Series [4] deals with T2, type 2 human 5α-reductase. Put plainly: Whole-cell assay of 5α-reductase, type 2. Set-up: expressed in transfected cells; host or cells: rat 1A cells infected with pMV7 retrovirus and selected with G418; intact cells for the whole-cell assay. Format: cell-based. The conditions noted are these: for inhibition at 100 µM: read-out: percent inhibition of 5α-reductase activity, whole-cell assay, Type 2, 100 μM compound.

Series [5] addresses T1, type 1 human 5α-reductase. Put plainly: Whole-cell assay of 5α-reductase, type 1. Format: cell-based. Also on record: expressed in transfected cells; host or cells: rat 1A cells infected with pMV7 retrovirus and selected with G418; microsomes for the cell-free assay, intact cells for the whole-cell assay. The conditions noted are these: for inhibition at 100 µM: read-out: percent inhibition of 5α-reductase activity, whole-cell assay, Type 1, 100 μM compound.

Series [6] has as its system 5α-reductase. Put plainly: Whole-cell 5α-reductase assay, isozyme not given. The class given is cell-based, human. The conditions noted are these: isozyme not stated. The source says: Intact cells containing 5α-reductase, their microsomes, or nuclear preparations can also be used to screen 5α-reductase inhibitors.
The test system of series [7] is hamster flank organ. Description: Testosterone-stimulated growth of the pigmented macules of hamster flank organs.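 On all read-outs here: prepubertal Syrian golden hamsters castrated at 4 weeks, ethanol vehicle on one flank organ, macule long and short axes gauged by caliper 1 day after final dose.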 The class given is in vivo, Syrian golden hamsters. The conditions noted are these: 18 days; for Pigmented macule area: mean±SEM.
Series [8] has as its system 5α-reductase. The note with it: Liao and Hiipakka 1995, cited from earlier work; for activity against 5α-reductase, in vitro enzyme assay: at 200 μM; for IC50: read-out: IC50, 5α-reductase, in vitro enzyme assay.
Series [9] is described as follows: Stability (half-life, oxidation or hydrolysis) in culture medium, buffers and solutions. Format: physicochemical. An excerpt: These green tea catechins had little inhibitory activity against 5α-reductase in whole cells. The lack of activity in whole cells may be due to an inability of these catechins to cross the cell membrane or to enzymatic or non-enzymatic changes in the structure of these catechins in assays using whole-cell cultures.
Active 5α-reductase inhibitors shown in Tables 1-7 are polyphenols or their derivatives and are easily oxidized or hydrolyzed within several hours to several days, especially in the presence of air or oxygen and at a pH above 7.0. […] More than 80% of the oxidation of hydrolysis can be prevented by the addition of an inorganic acid, such as hydrochloric acid, sulfuric acid, or phosphoric acid, or an organic acid, such as citric acid or acetic acid.

For series [10], the system named is hamster flank organ. Put plainly: DHT-stimulated growth of the pigmented macules of hamster flank organs. The conditions noted are these: 0.5 μg DHT + 1 mg compound topically daily, 18 days. The class given is in vivo, Syrian golden hamsters. The procedure: Prepubertal male Syrian golden hamsters, castrated at 4 weeks of age, were obtained from Harlan Sprague-Dawley Co. (Madison, Wis.). Bilateral orchiectomy was performed under anesthesia. The hamsters were housed individually in plastic cages and had free access to Purina rodent chow and water, and were maintained on a 12-h light/12-h dark cycle. Hamsters were used 1-2 weeks after castration and were divided into groups of 4-6 or 9-11 animals. Hair on the lower back of each animal was shaved weekly with an electric hair clipper to expose the flank organs. A treatment solution (5 μl with ethanol as vehicle) was applied topically to the flank organ once a day using a Pipetteman and a polypropylene disposable tip. The treatment solution contained either (a) ethanol alone, (b) an androgen (testosterone or DHT), (c) a test compound, or (d) a combination of an androgen and a test compound. For each hamster, one flank organ was treated while the other organ was not treated. The surface of the flank organ was wiped with an alcohol pad to remove residual compound before each treatment. At the end of each experiment (18 days), animals were killed by CO2 asphyxiation or an intraperitoneal injection of […]. Flank organs from both the treated and untreated sides were examined 1 day after the last treatment by the methods described below. The body weight of each animal was recorded before and after treatment. Experiments were repeated at least twice to assure reproducibility. The “Guide for the care and use of laboratory animals” (NIH publication no. 85-28, revised 1988) and the regulations of the U.S. Department of Agriculture were followed throughout the experiments.
In this study, the growth of the flank organ was determined by measuring the length of the long axis and the short axis of the pigmented spot (pigmented macule) with a caliper with a digital display (Digimatic; Mitutoyo Corporation, Japan). The surface area (in millimeters squared) of the spot was calculated as the product of the long axis and the short axis (Gomez and Frost 1975). The areas of the pigmented spots after treatment with ethanol alone or with test compound (in ethanol) alone were less than 10% of the areas of the pigmented spots after treatment with testosterone alone. These values were deducted from the experimental values and are compared in Tables 8-10. For each experiment, the means and standard error of the means (SEM) of the areas of the untreated and treated macules were computed separately for each treatment group. Within each experiment, an overall F-test (one way ANOVA) was used to test the null hypothesis that the mean sizes of the treated macules were the same in all groups, and Dunnett's multiple range test was used to examine differences between the treatment groups (i.e., green tea catechin+androgen, fatty acid+androgen, EGC derivative+androgen, or fatty acid derivative+androgen) and the control group (androgen treatment only). The Mann-Whitney test was used to examine differences between DHT-treated and the DHT and EGCG-treated groups. P-values <0.05 were taken as indicating statistical significance in all tests (Hochberg and Tamhane 1987).
Each group comprised four to six castrated male hamsters. At the end of the treatment period, the areas of the pigmented macules were determined and are presented as means±SEM in Table 8.
Each group comprised four to six castrated male hamsters. At the end of the treatment period, the areas of the pigmented macules were determined and are expressed as means±SEM as shown in Table 10.

Where [11] appears, read: 0.5 μg testosterone + 1 mg compound topically daily, castrated male hamsters.
The mark [12] stands for this setting: 0.5 μg testosterone + 1 mg compound topically daily.
Setting [13] is: 0.5 μg testosterone + 2 mg compound topically daily.
Where [14] appears, read: cell-free assay, double-reciprocal plots.

The structures appear in SMILES notation. Values joined by “and” are separate entries in the source; they are usually repeats but may differ in a detail not shown here. Identical values can stand only once. Like-named read-outs stand apart in the source and are kept apart here.

One may read the IC50 as the concentration that gives 50% inhibition. As usually defined, the inhibition is the relative decrease from the control value, in per cent. In the series on 5α-reductase [1], `O=C(/C=C/c1ccc(O)c(O)c1)OCCc1ccccc1` [Caffeic acid phenethyl ester] gave an IC50 of 25 µM. The inhibition at 100 µM in series [2] came out at 97%; in series [3], 36%; in [4], 98%; in [5], 99%.

`CCCCC/C=C\C/C=C\C/C=C\CCCCC(=O)O[C@H]1CC[C@@]2(C)C(=CC[C@H]3[C@@H]4CC[C@H]([C@H](C)CCCC(C)C)[C@@]4(C)CC[C@@H]32)C1` [cholesterol ester of γ-linolenic acid]: in the series with 5α-reductase [1], the IC50 is above 100 µM. For the same compound, in the series on 5α-reductase [6], the IC50 is above 100 µM and the “inhibitory activity in the whole-cell assay” value is “little activity”.

As for `O=C(O)c1cc(O)c(O)c(O)c1` [gallic acid, 3,4,5-trihydroxybenzoic acid], the “inhibitory activity in the cell-free assay” value in the series with 5α-reductase [1] is “weak inhibitory activity”. The “inhibitory activity in the whole-cell assay” value in the series on 5α-reductase [6] is given as “weak inhibitory activity”.

In the case of `Oc1ccccc1O` [Catechol, 1,2-dihydroxybenzene], the “inhibitory activity in the cell-free assay” value with 5α-reductase [1] is given as “weak inhibitory activity”. Also, in the series with 5α-reductase [6], the “inhibitory activity in the whole-cell assay” value was “weak inhibitory activity”.

For the compound `Oc1cc(O)c2c(c1)O[C@H](c1cc(O)c(O)c(O)c1)[C@H](O)C2` [EGC, epigallocatechin], the Pigmented macule area in the series on hamster flank organ [7] (setting [11]) is 10.75 ± 0.87 mm^2 and 5.50 ± 0.65 mm^2. The “activity against 5α-reductase, in vitro enzyme assay” value in the series with 5α-reductase [8] was “not active”.

Turning to `O=C(O[C@@H]1Cc2c(O)cc(O)cc2O[C@@H]1c1cc(O)c(O)c(O)c1)c1cc(O)c(O)c(O)c1` [EGCG, epigallocatechin gallate], the “half-life in culture medium” value in series [9] (culture medium used for whole-cell assays (pH 7.5), mean±SEM, N=3) came to 9.5 ± 0.5 min. Further, the “difference in stability, phosphate buffer vs culture medium” value in series [9] (pH 7.0 vs pH 7.5) is on record as 8 fold. In [9] (pH 7.5), the “half-life in phosphate buffered saline” value was 21.2 ± 2.0 min. In addition, the “half-life in phosphate buffer” value in [9] (phosphate buffer used for cell-free assays (pH 7.0), mean±SEM, N=3) stood at 74.7 ± 6.4 min. Also, the “Inhibition (percent decrease in macule area vs androgen-treated macules)” value in the series with hamster flank organ [7] (setting [12]) is 40% and 64%; in the series on hamster flank organ [7] (setting [13]), 60%; in the series with hamster flank organ [10] it was 97%. Also, the Pigmented macule area with hamster flank organ [7] (setting [11]) is 8.25 ± 1.43 mm^2 and 6.25 ± 0.82 mm^2; in the series with hamster flank organ [7] (setting [13]), 5.62 ± 0.75 mm^2; in the series with hamster flank organ [10] (mean±SEM), 0.50 ± 0.26 mm^2. Moreover, the IC50 at 5α-reductase [8] was 10 to 20 µM. Besides, the “reversibility of inhibition after pelleting and resuspending microsomes” value in series [2] (100 μM EGCG) is listed as “could not be reversed”. Further, the “mode of inhibition with respect to the substrate NADPH” value in series [2] (setting [14]) is “competitive inhibitor”. In addition, the “mode of inhibition with respect to the substrate testosterone” value in series [2] (setting [14]) is recorded as “non-competitive inhibitor”.

Consider `Oc1cccc(O)c1O` [Pyrogallol, 1,2,3-trihydroxybenzene], for which the “inhibitory activity in the cell-free assay” value in the series with 5α-reductase [1] is listed as “weak inhibitory activity”. Besides, the “inhibitory activity in the whole-cell assay” value in the series with 5α-reductase [6] was “weak inhibitory activity”. Besides, in series [4], the inhibition at 100 µM was found to be 15%.

With `CC/C=C\C/C=C\C/C=C\CCCCCCCC(=O)O` [Alpha-Linolenic Acid, Alpha-Linolenic Acid C18:3 CIS 9,12,15], the half-maximal inhibitory concentration (IC50) in [2] was determined as 8 µM; in series [3] (microsomes from rat 1A cells expressing human type 2 5α-reductase, read-out: Cell-free assay IC50, 5α-reductase Type 2), 9 µM; in series [4] (rat 1A cells expressing human type 2 5α-reductase), 23 µM; in series [5] (rat 1A cells expressing human type 1 5α-reductase), 29 µM. For the same compound, the inhibition at 100 µM is 99% in series [2], 84% in [3], 86% in series [4] and 82% in series [5].

Take `Oc1cc(O)c2c(c1)O[C@H](c1ccc(O)c(O)c1)[C@H](O)C2` [EC, epicatechin]: in the series with hamster flank organ [7] (setting [12]), the “Inhibition (percent decrease in macule area vs androgen-treated macules)” value is on record as 37%. For the same compound, the Pigmented macule area with hamster flank organ [7] (setting [11]) stood at 8.67 ± 1.08 mm^2. Besides, the “activity against 5α-reductase, in vitro enzyme assay” value in the series with 5α-reductase [8] was “not active”.

In turn, `CCCCC/C=C\C/C=C\C/C=C\CCCCC(=O)OC` [Methyl ester of γ-linolenic acid] had an IC50 in the series with 5α-reductase [1] above 100 µM. Further, in the series on 5α-reductase [6], the IC50 was above 100 µM and the “inhibitory activity in the whole-cell assay” value was “little activity”.

Regarding `O=C(O[C@@H]1Cc2c(O)cc(O)cc2O[C@@H]1c1ccc(O)c(O)c1)c1cc(O)c(O)c(O)c1` [ECG, epicatechin gallate], in the series with hamster flank organ [7] (setting [12]), the “Inhibition (percent decrease in macule area vs androgen-treated macules)” value was 59%. Besides, the Pigmented macule area in the series with hamster flank organ [7] (setting [11]) is 5.75 ± 0.57 mm^2. In addition, the values for the IC50 (on 5α-reductase [8]; in [3]) were 10 to 20 µM and 69 µM, respectively.
